Results: patent US8158656B2, “2-indolinone derivatives as multi-target protein kinase inhibitors and histone deacetylase inhibitors” (Shenzhen Chipscreen Biosciences Ltd., priority 2008, dated 2012)

How the values were obtained:
[1] = system: Raji; assay: Tumor cell proliferation (MTS), Raji; assay type: cell-based; conditions: Homo sapiens, 72 hours
Protocol: (§1) Measurement of in vivo cell proliferation:
(§2) Tumor cells were trypsinized and plated into 96-well plates at 3,000 per well and incubated in complete medium with 10% FBS for 24 hours. Compounds were added over a final concentration range of 100 μmol/L to 100 nmol/L in 0.1% DMSO and incubated for 72 hours in complete medium. The effects on proliferation were determined by addition of MTS reagent (Promega) according to the instruction, incubation for 2 hours at 37° C. in CO2 incubator, and record the absorbance at 490 nm using an ELISA plate reader.

[2] = system: PDGFRβ NIH-3T3 cells; assay: PDGF ligand-dependent cell proliferation; assay type: cell-based; conditions: Mus musculus, NIH3T3; NIH-3T3 expressing human PDGFRβ, PDGF BB 50 ng/ml, 72 hours, MTS
Protocol: Measurement of in vivo inhibition on receptor ligand-dependent cell proliferation: PDGF dependent cell proliferation:
NIH-3T3 mouse fibroblasts cell line engineered to stably express human PDGFRβ was constructed and used to evaluate PDGF dependent cell proliferation. PDGFRβ NIH-3T3 cells were plated into 96-well plates at 5,000 per well and incubated with serum-free medium for 24 hours. Compounds and PDGF BB (50 ng/ml) were added and incubated for 72 hours in serum-free medium. The effects on proliferation were determined by addition of MTS reagent (Promega) according to the instruction, incubation for 2 hours at 37° C. in CO2 incubator, and record the absorbance at 490 nm using an ELISA plate reader.

[3] = target: T1, c-Kit (Homo sapiens, UniProt P10721); assay: c-KIT kinase ELISA bioassay; assay type: biochemical; conditions: ELISA kinase assay, 20 μM ATP
T1 construct: purchased Cell Signaling
T1 sequence (P10721 26-976): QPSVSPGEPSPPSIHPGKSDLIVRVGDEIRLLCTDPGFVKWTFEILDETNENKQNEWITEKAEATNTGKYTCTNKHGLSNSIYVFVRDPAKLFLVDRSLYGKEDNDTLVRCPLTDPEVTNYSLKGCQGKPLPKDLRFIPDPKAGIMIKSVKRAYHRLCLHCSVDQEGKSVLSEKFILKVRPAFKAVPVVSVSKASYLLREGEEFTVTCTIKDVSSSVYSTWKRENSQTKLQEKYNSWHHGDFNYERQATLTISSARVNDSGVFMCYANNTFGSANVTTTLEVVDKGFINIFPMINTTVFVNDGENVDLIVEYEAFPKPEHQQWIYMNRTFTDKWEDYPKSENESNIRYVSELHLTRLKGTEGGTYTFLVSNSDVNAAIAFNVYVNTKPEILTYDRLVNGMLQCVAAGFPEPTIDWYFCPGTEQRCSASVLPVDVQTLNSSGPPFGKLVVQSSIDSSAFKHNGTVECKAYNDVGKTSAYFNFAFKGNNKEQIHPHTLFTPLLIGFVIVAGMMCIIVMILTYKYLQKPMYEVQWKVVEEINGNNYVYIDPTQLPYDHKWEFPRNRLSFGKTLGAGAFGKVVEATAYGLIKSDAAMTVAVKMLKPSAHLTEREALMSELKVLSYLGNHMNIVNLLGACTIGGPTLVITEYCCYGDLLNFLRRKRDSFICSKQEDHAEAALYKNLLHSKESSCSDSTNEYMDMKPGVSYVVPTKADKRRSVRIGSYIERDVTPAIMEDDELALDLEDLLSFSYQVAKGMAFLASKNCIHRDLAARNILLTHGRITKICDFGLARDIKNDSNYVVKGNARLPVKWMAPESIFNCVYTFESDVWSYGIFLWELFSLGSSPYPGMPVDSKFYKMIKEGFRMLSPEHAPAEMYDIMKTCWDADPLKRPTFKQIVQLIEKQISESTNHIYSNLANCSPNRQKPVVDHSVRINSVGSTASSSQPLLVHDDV
Protocol: This assay is used to measure in vitro kinase activity of c-KIT in an ELISA assay.
• 1. Streptavidin coated, 96-well, white plate • 2. Phospho-Tyrosine Monoclonal Antibody (P-Tyr-100) (Cell Signaling) • 3. HRP-labeled anti-mouse IgG (Upstate) • 4. HTScan™ Tyrosine Kinase Buffer (4×) • 5. DTT (1000×. 1.25 M) • 6. ATP (10 mM) • 7. KDR (Tyr996) Biotinylated Peptide Substrate (Cell Signaling) • 8. c-KIT Kinase (recombinant, human) (Cell Signaling) • 9. Wash Buffer: 1× PBS, 0.05% Tween-20 (PBS/T) • 10. Bovine Serum Albumin (BSA) • 11. Stop Buffer: 50 mM EDTA pH 8 • 12. Enhanced chemiluminescence (ECL) (Amersham) Procedure for performing the assay in 96-well plate: • 1. Add 10 μl 10 mM ATP to 1.25 ml 6 μM substrate peptide. Dilute the mixture with dH20 to 2.5 ml to make 2× ATP/substrate cocktail ([ATP]=40 μM, [substrate]=3 μm). • 2. Immediately transfer enzyme from −80° C. to ice. Allow enzyme to thaw on ice. • 3. Microcentrifuge briefly at 4° C. to bring liquid to the bottom of the vial. Return immediately to ice. • 4. Add 10 μl of DTT (1.25 M) to 2.5 ml of 4× HTScan™ Tyrosine Kinase Buffer (240 mM HEPES pH 7.5, 20 mM MgCl2, 20 mM MnCl2, 12 μM Na3VO4) to make DTT/Kinase buffer. • 5. Transfer 1.25 ml of DTT/Kinase buffer to enzyme tube to make 4× reaction cocktail ([enzyme]=4 ng/μL in 4× reaction cocktail). • 6. Incubate 12.5 μl of the 4× reaction cocktail with 12.5 μl/well of prediluted compound of interest (usually around 10 μM) for 5 minutes at room temperature. • 7. Add 25 μl of 2× ATP/substrate cocktail to 25 μl/well preincubated reaction cocktail/compound. Final Assay Conditions for a 50 μl Reaction: • 60 mM HEPES pH 7.5 • 5 mM MgCl2 • 5 mM MnCl2 • 3 μM Na3VO4 • 1.25 mM DTT • 20 μM ATP • 1.5 μM peptide • 100 ng c-KIT Kinase • 8. Incubate reaction plate at room temperature for 30 minutes. • 9. Add 50 μl/well Stop Buffer (50 mM EDTA, pH 8) to stop the reaction. • 10. Transfer 25 μl of each reaction and 75 μl dH2O/well to a 96-well streptavidincoated plate and incubate at room temperature for 60 minutes. • 11. Wash three times with 200 μl/well PBS/T • 12. Dilute primary antibody, Phospho-Tyrosine Monoclonal Antibody (P-Tyr-100), 1:1000 in PBS/T with 1% BSA. Add 100 μl/well of primary antibody. • 13. Incubate at room temperature for 60 minutes. • 14. Wash three times with 200 μl/well PBS/T • 15. Dilute HRP labeled anti-mouse IgG 1:500 in PBS/T with 1% BSA. Add 100 μl/well diluted antibody. • 16. Incubate at room temperature for 30 minutes. • 17. Wash five times with 200 μl/well PBS/T. • 18. Add 100 μl/well ECL Solution. • 19. Detect luminescence with appropriate Plate Reader. Flt3 Bioassay

[4] = system: Mo7e cells (SCF dependent); assay: c-Kit ligand (SCF) dependent cell proliferation; assay type: cell-based; conditions: SCF 50 ng/ml, 72 hours, MTS
Protocol: SCF dependent cell proliferation:
Mo7e cells (SCF dependent) were plated into 96-well plates at 15000 per well and incubated in 1640 medium with 10% FBS and SCF (50 ng/ml) for 24 hours. Compounds were added and incubated for 72 hours at 37° C. in CO2 incubator. The effects on proliferation were determined by addition of MTS reagent (Promega) according to the instruction, incubation for 2 hours at 37° C. in CO2 incubator, and record the absorbance at 490 nm using an ELISA plate reader.

[5] = system: total HDAC enzyme; assay: Total HDAC enzyme activity, HDAC Fluorimetric Assay (HeLa extract); assay type: biochemical, human
Protocol: Measurement of in vitro inhibition of total HDAC enzyme activity:
The in vitro inhibition of total HDAC enzyme was determined by HDAC Fluorimetric Assay/Drug Discovery Kit (BIOMOL) according to manufacture's instruction. • 1. Add Assay buffer, diluted trichostatin A or test inhibitor to appropriate wells of the microtiter plate. Following table lists examples of various assay types and the additions required for each test.
• 2. Add diluted HeLa extract or other HDAC sample to all wells except those that are to be “No Enzyme Controls” (Blank). • 3. Allow diluted Fluor de Lys™ Substrate and the samples in the microtiter plate to equilibrate to assay temperature (25° C.). • 4. Initiate HDAC reactions by adding diluted substrate (25 μl) to each well and mixing thoroughly. • 5. Allow HDAC reactions to proceed for desired length of time and then stop them by addition of Fluor de Lys™ Developer (50 μl). Incubate plate at room temperature (25° C.) for 10-15 min. • 6. Read samples in a microtiter-plate reading fluorimeter capable of excitation at a wavelength in the range 350-380 nm and detection of emitted light in the range 440-460 nm. Measurement of in vivo inhibition of HDAC subtype activity: […]

[6] = system: MCF7; assay: Tumor cell proliferation (MTS), MCF7; assay type: cell-based; conditions: Homo sapiens, MCF7, 72 hours
Protocol: as §1, §2

## Cc1[nH]c(/C=C2\C(=O)Nc3ccc(F)cc32)c(C)c1C(=O)NCCNc1ccc(C(=O)Nc2ccccc2N)cn1 [Example 3, (Z)-N-(2-aminophenyl)-6-(2-(2-((5-fluoro-2-oxoindolin-3-ylidene)methyl)-3,5-dimethyl-1H-pyrrole-4-carboxamido)ethylamino)nicotinamide]
[1]
  GI50: 3.45 µM
[2]
  GI50: > 1000 nM
[3]
  IC50: 157 nM
[4]
  GI50: 126 nM
[5]
  % inhibition of total HDAC enzyme activity at 30 μM: 9.20%
[6]
  GI50: > 60 µM

## Cc1[nH]c(/C=N/N=C2\C(=O)Nc3ccc(F)cc32)c(C)c1C(=O)NCCNc1ccc(C(=O)Nc2ccccc2N)cn1 [Example 4, N-(2-aminophenyl)-6-(2-(2-(((5-fluoro-2-oxoindolin-3-ylidene)hydrazono)-methyl)-3,5-dimethyl-1H-pyrrole-4-carboxamido)ethylamino)nicotinamide]
[1]
  GI50: > 60 µM
[2]
  GI50: > 1000 nM
[3]
  IC50: > 1000 nM
[4]
  GI50: > 1000 nM
[5]
  % inhibition of total HDAC enzyme activity at 30 μM: 6.90%
[6]
  GI50: > 60 µM

## Cc1[nH]c(/C=C2\C(=O)Nc3ccc(F)cc32)c(C)c1C(=O)NCCCNc1ccc(C(=O)Nc2ccccc2N)cn1 [Example 6, (Z)-N-(2-aminophenyl)-6-(3-(2-((5-fluoro-2-oxoindolin-3-ylidene)methyl)-3,5-dimethyl-1H-pyrrole-4-carboxamido)propylamino)nicotinamide]
[1]
  GI50: 3.45 µM
[2]
  GI50: > 1000 nM
[3]
  IC50: 76 nM
[4]
  GI50: 46 nM
[5]
  % inhibition of total HDAC enzyme activity at 30 μM: 12.50%
[6]
  GI50: > 60 µM

## Cc1[nH]c(/C=N/N=C2\C(=O)Nc3ccc(F)cc32)c(C)c1C(=O)NCCCNc1ccc(C(=O)Nc2ccccc2N)cn1 [Example 7, N-(2-aminophenyl)-6-(3-(2-(((5-fluoro-2-oxoindolin-3-ylidene)hydrazono)-methyl)-3,5-dimethyl-1H-pyrrole-4-carboxamido)propylamino)nicotinamide]
[1]
  GI50: > 60 µM
[2]
  GI50: > 1000 nM
[3]
  IC50: > 1000 nM
[4]
  GI50: > 1000 nM
[5]
  % inhibition of total HDAC enzyme activity at 30 μM: 7.80%
[6]
  GI50: > 60 µM

## Cc1[nH]c(/C=C2\C(=O)Nc3ccc(F)cc32)c(C)c1C(=O)NCCCCNc1ccc(C(=O)Nc2ccccc2N)cn1 [Example 9, (Z)-N-(2-aminophenyl)-6-(4-(2-((5-fluoro-2-oxoindolin-3-ylidene)methyl)-3,5-dimethyl-1H-pyrrole-4-carboxamido)butylamino)nicotinamide]
[1]
  GI50: > 60 µM
[2]
  GI50: 105 nM
[3]
  IC50: 23 nM
[4]
  GI50: 32 nM
[5]
  % inhibition of total HDAC enzyme activity at 30 μM: 6.30%
[6]
  GI50: > 60 µM

## Cc1[nH]c(/C=N/N=C2\C(=O)Nc3ccc(F)cc32)c(C)c1C(=O)NCCCCNc1ccc(C(=O)Nc2ccccc2N)cn1 [Example 10, N-(2-aminophenyl)-6-(4-(2-(((5-fluoro-2-oxoindolin-3-ylidene)hydrazono)-methyl)-3,5-dimethyl-1H-pyrrole-4-carboxamido)butylamino)nicotinamide]
[1]
  GI50: > 60 µM
[2]
  GI50: > 1000 nM
[3]
  IC50: > 1000 nM
[4]
  GI50: > 1000 nM
[5]
  % inhibition of total HDAC enzyme activity at 30 μM: 6.10%
[6]
  GI50: > 60 µM

## Cc1[nH]c(/C=C2\C(=O)Nc3ccc(F)cc32)c(C)c1C(=O)NCCNc1ccc(C(=O)Nc2ccc(F)cc2N)cn1 [Example 13, (Z)-N-(2-amino-4-fluorophenyl)-6-(2-(2-((5-fluoro-2-oxoindolin-3-ylidene)-methyl)-3,5-dimethyl-1H-pyrrole-4-carboxamido)ethylamino)nicotinamide]
[1]
  GI50: > 60 µM
[2]
  GI50: > 1000 nM
[3]
  IC50: 534 nM
[4]
  GI50: 151 nM
[5]
  % inhibition of total HDAC enzyme activity at 30 μM: −2.60%
[6]
  GI50: > 60 µM

## Cc1[nH]c(/C=N/N=C2\C(=O)Nc3ccc(F)cc32)c(C)c1C(=O)NCCNc1ccc(C(=O)Nc2ccc(F)cc2N)cn1 [Example 14, N-(2-amino-4-fluorophenyl)-6-(2-(2-(((5-fluoro-2-oxoindolin-3-ylidene)-hydrazono)methyl)-3,5-dimethyl-1H-pyrrole-4-carboxamido)ethylamino)nicotinamide]
[1]
  GI50: > 60 µM
[2]
  GI50: > 1000 nM
[3]
  IC50: > 1000 nM
[4]
  GI50: > 1000 nM
[5]
  % inhibition of total HDAC enzyme activity at 30 μM: 1.00%
[6]
  GI50: > 60 µM

## Cc1[nH]c(/C=C2\C(=O)Nc3ccc(F)cc32)c(C)c1C(=O)NCCCNc1ccc(C(=O)Nc2ccc(F)cc2N)cn1 [Example 16, (Z)-N-(2-amino-4-fluorophenyl)-6-(3-(2-((5-fluoro-2-oxoindolin-3-ylidene)-methyl)-3,5-dimethyl-1H-pyrrole-4-carboxamido)propylamino)nicotinamide]
[1]
  GI50: > 60 µM
[2]
  GI50: > 1000 nM
[3]
  IC50: 242 nM
[4]
  GI50: 105 nM
[5]
  % inhibition of total HDAC enzyme activity at 30 μM: 6.70%
[6]
  GI50: > 60 µM

## Cc1[nH]c(/C=N/N=C2\C(=O)Nc3ccc(F)cc32)c(C)c1C(=O)NCCCNc1ccc(C(=O)Nc2ccc(F)cc2N)cn1 [Example 17, N-(2-amino-4-fluorophenyl)-6-(3-(2-(((5-fluoro-2-oxoindolin-3-ylidene)-hydrazono)methyl)-3,5-dimethyl-1H-pyrrole-4-carboxamido)propylamino)nicotinamide]
[1]
  GI50: > 60 µM
[2]
  GI50: > 1000 nM
[3]
  IC50: > 1000 nM
[4]
  GI50: > 1000 nM
[5]
  % inhibition of total HDAC enzyme activity at 30 μM: 4.00%
[6]
  GI50: > 60 µM
